For test [1], the system named is hereditary angio-neurotic edema. The conditions noted are these: reported in the literature; cited from earlier work.
For test [2], the system named is total hemolytic complement activity. The conditions noted are these: in vitro and in vivo, as judged by reduction in total hemolytic complement activity; cited from earlier work.
For another test, the system named is whole complement. The experiment in a line: In vivo activity (Guinea Pig): serum whole complement by capillary tube assay after dosing. The conditions noted are these: Intraperitoneal, 200 mg/kg.
A further test has as its system shunt pathway. As to the kind of experiment: Test Code 036 (C-Shunt inhibitor): lysis of human erythrocytes in autologous serum via shunt pathway activated by cobra venom factor. Format: biochemical. The conditions noted are these: activity in wells, twofold serial dilution; higher well number indicates higher activity. The text has this:
(§1) An active inhibitor protects C2 from C1 and C4; (ii) Test Code 035 (C3-C9 inhibitor)--This test determines the ability of the late components of human complement (C3-C9) to lyse EAC 142 in the presence of appropriate dilutions of the test compound. An active inhibitor protects EAC 142 from lysis by human C3-C9; (iii) Test Code 036 (C-Shunt inhibitor)--In this test human erythrocytes rendered fragile are lysed in autologous serum via the shunt pathway activated by cobra venom factor in the presence of appropriate dilutions of the test compound. Inhibition of the shunt pathway results in failure of lysis; (iv) Forssman Vasculitis Test--Here, the well known complement dependent lesion, Forssman vasculitis, is produced in guinea pigs by intradermal injection of rabbit anti-Forssman antiserum. The lesion is measured in terms of diameter, edema and hemorrhage and the extent to which a combined index of these is inhibited by prior intraperitoneal injection of the test compound at 200 mg/kg is then reported, unless otherwise stated; (v) Forssman Shock Test--Lethal shock is produced in guinea pigs by an i.v. injection of anti-Forssman antiserum and the harmonic mean death time of treated guinea pigs is compared with that of the simultaneous controls; (vi) Complement Level Reduction Test--In this test, the above dosed guinea pigs, or others are bled for serum and the complmenet level is determined in undiluted serum by the capillary tube method of U.S. Pat. No. 3,876,376 and compared to undosed control guinea pigs; (vii) Cap 50 Test--Here, appropriate amounts of the test compound are added to a pool of guinea pig serum in vitro, after which the undiluted serum capillary tube assay referred to above is run. The concentration of compound inhibiting 50% is reported.
(§2) **Activity in wells, a serial dilution assay; higher well number indicate
(§3) higher activity. The serial dilutions are twofold-

In the next test the target is human C1 (Homo sapiens, UniProt P09871). The experiment in a line: Test Code 026 (C1 inhibitor): activated human C1 destroys fluid phase human C2 in presence of C4. The format is biochemical. Conditions: activity in wells, twofold serial dilution; higher well number indicates higher activity.
Sequence of human C1 (P09871 16-688): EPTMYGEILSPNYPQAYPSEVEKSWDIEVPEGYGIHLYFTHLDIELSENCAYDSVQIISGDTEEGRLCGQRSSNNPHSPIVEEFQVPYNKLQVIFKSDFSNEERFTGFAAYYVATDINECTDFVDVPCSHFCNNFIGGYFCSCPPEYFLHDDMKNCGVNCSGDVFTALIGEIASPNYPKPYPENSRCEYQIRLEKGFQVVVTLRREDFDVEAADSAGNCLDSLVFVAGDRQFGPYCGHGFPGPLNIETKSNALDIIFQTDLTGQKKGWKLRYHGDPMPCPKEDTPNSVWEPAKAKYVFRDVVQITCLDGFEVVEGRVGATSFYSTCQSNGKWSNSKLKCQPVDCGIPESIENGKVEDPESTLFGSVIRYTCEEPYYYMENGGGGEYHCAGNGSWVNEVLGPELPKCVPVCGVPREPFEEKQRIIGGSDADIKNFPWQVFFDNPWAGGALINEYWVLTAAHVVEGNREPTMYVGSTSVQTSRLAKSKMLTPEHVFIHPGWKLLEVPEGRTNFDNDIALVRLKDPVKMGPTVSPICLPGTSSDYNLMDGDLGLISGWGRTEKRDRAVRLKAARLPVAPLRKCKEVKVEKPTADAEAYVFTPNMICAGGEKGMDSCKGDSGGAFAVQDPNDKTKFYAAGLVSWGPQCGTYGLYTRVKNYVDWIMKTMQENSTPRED
Sequence of human C1 (P00736 18-705 partner): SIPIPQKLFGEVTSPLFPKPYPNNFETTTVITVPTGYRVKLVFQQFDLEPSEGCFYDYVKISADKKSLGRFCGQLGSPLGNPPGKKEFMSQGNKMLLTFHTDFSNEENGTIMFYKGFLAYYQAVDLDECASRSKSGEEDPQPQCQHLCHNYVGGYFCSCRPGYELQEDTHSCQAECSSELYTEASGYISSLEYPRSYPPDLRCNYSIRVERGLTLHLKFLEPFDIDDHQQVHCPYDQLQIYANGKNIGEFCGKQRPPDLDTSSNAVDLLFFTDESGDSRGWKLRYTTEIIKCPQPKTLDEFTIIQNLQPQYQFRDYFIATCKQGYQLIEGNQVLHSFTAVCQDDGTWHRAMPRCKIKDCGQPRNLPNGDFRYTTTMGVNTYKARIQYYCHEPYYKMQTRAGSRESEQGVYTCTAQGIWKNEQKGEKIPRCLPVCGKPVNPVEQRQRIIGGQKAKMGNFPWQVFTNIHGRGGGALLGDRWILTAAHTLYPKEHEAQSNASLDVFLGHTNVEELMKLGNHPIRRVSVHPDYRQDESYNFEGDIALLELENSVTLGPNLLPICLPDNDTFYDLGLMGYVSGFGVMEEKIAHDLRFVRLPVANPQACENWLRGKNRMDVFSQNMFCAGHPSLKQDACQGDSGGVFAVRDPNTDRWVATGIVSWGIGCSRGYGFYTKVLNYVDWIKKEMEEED
Sequence of human C1 (P02745 23-245 partner): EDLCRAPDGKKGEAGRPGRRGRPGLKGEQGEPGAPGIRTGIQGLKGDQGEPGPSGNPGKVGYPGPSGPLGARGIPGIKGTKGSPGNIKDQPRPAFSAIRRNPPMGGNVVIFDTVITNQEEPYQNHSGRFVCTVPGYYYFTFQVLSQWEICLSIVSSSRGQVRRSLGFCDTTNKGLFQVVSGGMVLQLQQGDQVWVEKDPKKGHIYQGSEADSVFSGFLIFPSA
Sequence of human C1 (P02746 28-253 partner): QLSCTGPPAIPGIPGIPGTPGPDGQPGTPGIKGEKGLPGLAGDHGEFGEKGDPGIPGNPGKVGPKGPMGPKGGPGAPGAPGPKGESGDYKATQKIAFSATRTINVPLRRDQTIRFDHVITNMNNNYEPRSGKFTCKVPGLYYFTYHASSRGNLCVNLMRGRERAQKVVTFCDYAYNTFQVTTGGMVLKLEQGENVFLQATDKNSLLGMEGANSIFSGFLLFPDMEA
Sequence of human C1 (P02747 29-245 partner): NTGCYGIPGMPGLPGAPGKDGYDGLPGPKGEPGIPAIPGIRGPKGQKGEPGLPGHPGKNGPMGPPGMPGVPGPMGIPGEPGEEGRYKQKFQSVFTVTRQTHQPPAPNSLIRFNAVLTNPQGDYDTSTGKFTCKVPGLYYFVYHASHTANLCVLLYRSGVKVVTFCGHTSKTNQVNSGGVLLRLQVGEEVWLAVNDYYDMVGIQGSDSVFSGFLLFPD
Excerpt: as §1, §2, §3

For the next test, the system named is human complement (C3-C9). The experiment in a line: Test Code 035 (C3-C9 inhibitor): lysis of EAC 142 by late components of human complement. Format: biochemical. Conditions: activity in wells, twofold serial dilution; higher well number indicates higher activity.
Excerpt: as §1, §2, §3

A further test concerns complement system. Conditions: reported, British Journal of Experimental Pathology, 33, 327-339 (1952); cited from earlier work.

Structures can show the parent of a compound that is named as a salt.

In the case of `NC[C@H]1CC[C@H](C(=O)O)CC1` [tranexamic acid], the “treatment of hereditary angio-neurotic edema” value in test [1] is given as “used with success”. Consider `NCCCCCC(=O)O` [epsilon-aminocaproic acid], for which the “treatment of hereditary angio-neurotic edema” value in test [1] is “used with success”. With pentosan-polysulfoester, the “anticomplementary activity on human serum” value in test [2] was “anticomplementary activity on human serum, both in vitro and in vivo”. On to `O=S(=O)(O)OC[C@H]1O[C@H](OC[C@H]2O[C@@H](OC[C@H]3O[C@H](OC[C@H]4O[C@H](OS(=O)(=O)O)[C@H](OS(=O)(=O)O)[C@@H](OS(=O)(=O)O)[C@@H]4OS(=O)(=O)O)[C@H](OS(=O)(=O)O)[C@@H](OS(=O)(=O)O)[C@H]3OS(=O)(=O)O)[C@H](OS(=O)(=O)O)[C@@H](OS(=O)(=O)O)[C@@H]2OS(=O)(=O)O)[C@H](OS(=O)(=O)O)[C@@H](OS(=O)(=O)O)[C@H]1OS(=O)(=O)O` [drawing 9, O-α-D-galactopyranosyl(1→6)-O-β-D-glucopyranosyl(1→6)-O-α-D-galactopyranosyl(1→6)-α-D-glucopyranose [gal 1α,6 glc 1β,6 gal 1α,6 glc] tetradecakis (H-sulfate), tetradecasodium salt], for which the “In vivo Activity (Guinea Pig) % Inhibition” value was -44% with whole complement (30 min), -55% with whole complement (60 min) and -80% with whole complement (120 min). Further, the “Shunt Inhibition 036 Wells” value in the test on shunt pathway is “+6 Wells”. For the same molecule, the “C1 026 Wells” value at human C1 was “+9 Wells”. In the test on human complement (C3-C9), the “C-Late 035 Wells” value is listed as “+1 Wells”. Take heparin: the anticomplementary effect entry in the test on complement system was “anticomplementary effect”. Regarding `Nc1ccc2cc(S(=O)(=O)[O-])cc(O)c2c1N=Nc1ccc(NC(=O)Nc2ccc(N=Nc3c(N)ccc4cc(S(=O)(=O)[O-])cc(O)c34)c(S(=O)(=O)[O-])c2)cc1S(=O)(=O)[O-].[Na+].[Na+].[Na+].[Na+]` [chlorazol fast pink, 3,3'-ureylenebis[6-(2-amino-8-hydroxy-6-sulfo-1-naphthylazo)benzenesulfonic acid], tetrasodium salt], in the test on complement system, the anticomplementary effect entry is “anticomplementary effect”.

These data come from US4221907A, “Substituted O-α-D and O-β-D-multi-galactopyranosyl and glucopyranosyl 1→4 and 1→6 galactopyranosyl 1→6 α-D-glucopyranoses” (American Cyanamid Company, priority 1979, dated 1980).
